Assay results as given in ChEMBL document CHEMBL4359811, “Development of Potent and Selective Pyrazolopyrimidine IRAK4 Inhibitors” (J Med Chem, 2019).
In brackets after ≈: the same amount, converted by molar mass.

Experiments:
[1] = Half-life in monkey at 1 mg/kg, po; assay type: ADME, organism-based, Macaca mulatta; conditions: rhesus monkey, in vivo
[2] = Oral bioavailability in mouse at 100 mg/kg administered as suspension in MCT; assay type: ADME, organism-based; conditions: in vivo
[3] = Oral bioavailability in mouse at 300 mg/kg administered as suspension in MCT; assay type: ADME, organism-based; conditions: in vivo
[4] = Plasma clearance in dog at 0.3 mg/kg, iv; assay type: ADME, organism-based, Canis lupus familiaris
[5] = Kinetic aqueous solubility of the compound in PBS buffer at pH 7.4 incubated for 24 hrs under shaking condition by LC-CLND assay; assay type: physicochemical; conditions: PBS buffer, pH 7.4; read-out: Kinetic_solubility
[6] = Protein binding in mouse plasma at 5 uM incubated for 4 hrs by LC-MS/MS analysis; assay type: ADME, cell-free; conditions: read-out: PPB (converted)
Mus musculus [7] = assay: In vivo inhibition of IRAK4 in CpG ODN 1826 induced C57BL/6 mouse assessed as blockade of TLR9 signalling by measuring IL-6 levels at 30 mg/kg, po treated 1 hr prior to CpG ODN 1826 stimulation and measured after 1 hr by MSD assay; assay type: functional; parameters: scale not given: the % may be the effect or the level left
[8] = Protein binding in monkey plasma at 5 uM incubated for 4 hrs by LC-MS/MS analysis; assay type: ADME, cell-free, Macaca mulatta; conditions: rhesus monkey, read-out: PPB (converted)
Mus musculus [9] = assay: In vivo inhibition of IRAK4 in CpG ODN 1826 induced C57BL/6 mouse assessed as blockade of TLR9 signalling by measuring IL-6 levels at 3 mg/kg, po treated 1 hr prior to CpG ODN 1826 stimulation and measured after 1 hr by MSD assay; assay type: functional; parameters: scale not given: the % may be the effect or the level left
[10] = Cmax in mouse at 10 mg/kg, po; assay type: ADME, organism-based; parameters: dose 10 mg/kg, route oral; conditions: in vivo
[11] = AUC (infinity) in rat at 1 mg/kg, po; assay type: ADME, organism-based; parameters: dose 1 mg/kg, time infinity, route oral; conditions: in vivo
[12] = Oral bioavailability in mouse at 100 mg/kg administered as suspension in 10% captisol; assay type: ADME, organism-based; conditions: in vivo

C[C@]1(CO)Cc2cc(NC(=O)c3cnn4cccnc34)c(N3CCOCC3)cc2O1
half-life [1]: 180 min | bioavailability [2]: 19% | bioavailability [3]: 22% | clearance [4]: 9.3 mL/min/kg | solubility kinetic at 24 h [5]: 10 µM (≈ 4.09 µg/mL) | fraction unbound at 4 h, 5 µM [6]: 0.14 | Activity (Mus musculus [7]): -78% | fraction unbound at 4 h, 5 µM [8]: 0.49 | Activity (Mus musculus [9]): -27% | Cmax [10]: 5.4 µM | AUC(0-inf) [11]: 3 µM·h | bioavailability [12]: 49%
